# Where two headings read alike, the source gives them in different places.
# Experiments:
# KG-1 cells = experiment: Antiproliferative activity in KG-1 cells (Table S1); assay type: cell-based; conditions: Homo sapiens, read-out: % inhibition of proliferation, KG-1 cells
# Procedure: To determine the antiproliferative activity of MC3353 in KG-1 cells, the cells were seeded at day 0 in a 96-well plate and treated with test compound solutions at a dose range spanning from 3.2 × 10^−9 to 1 × 10^−5 M at days 1, 2, and 3. On day 4, cell viability was assessed using the ATPLite kit (PerkinElmer, Villebon-sur-Yvette, France).
# Afterwards, MC3353 was tested in KG-1 leukemia cells for its ability to reactivate gene expression in a stably integrated luciferase reporter construction under the control of a CMV promoter inhibited by DNA methylation (CMV-luc assay). After 5 or 24 h of incubation in the presence of drugs at the indicated concentrations, the luciferase signal was measured and normalized to the value of the non-treated cells (Table 2). Since the CMV-luc assay is highly compromised when the tested compounds induce cell death, the cytotoxicity of MC3353 against KG-1 cells at 5 and 24 h was determined in parallel. MC3353 was highly toxic for KG-1 cells after 24 h of treatment starting from a concentration of 1 μM (Additional file 1: Table S1 and indicated in stars in Table 2).
# KG-1 = experiment: Cell viability, trypan blue exclusion; assay type: cell-based, human
# Procedure: (§1) U-937 (acute myeloid leukemia), RAJI (Burkitt’s lymphoma), PC-3 (prostate cancer), and MDA-MB-231 (breast cancer) cell lines were obtained from the Deutsche Sammlung für Mikroorganismen and Zellkulturen (DSZM, Braunschweig, Germany) and were cultured in RPMI 1640 (Lonza, Verviers, Belgium) complemented with 10% FBS (Lonza, Verviers, Belgium) and 1% antibiotic-antimycotic (Lonza). RPMI1788 (normal B lymphocytes) and KG-1 (acute myeloid leukemia) cell lines were obtained from the American Type Culture Collection (ATCC) and were maintained in RPMI 1640 complemented with 20% FBS and IMDM complemented with 10% FBS, respectively. Cell lines were treated with compounds at the indicated concentrations in the exponential growth phase.
# (§2) Proliferation and viability of U-937, KG-1, RAJI, PC-3, MDA-MB-231, RPMI1788, PBMCs, and PHA_PBMCs were assessed by trypan blue exclusion assays at the indicated time points. Nuclear morphology changes associated with apoptosis and necrosis were evaluated by fluorescence microscopy after Hoechst and propidium iodide (PI) staining as previously described.
# (§3) IC50 values of compounds against cellular viability were determined by using nonlinear regression fitting curves with GraphPad Prism 8 or CalcuSyn software The t test used for statistical analyses was performed with GraphPad Prism 8. All the tests were one-tailed, and a p value < 0.05 was considered statistically significant.
# MDA-MB-231 = experiment: Cell viability, trypan blue exclusion; assay type: cell-based, human
# Procedure: as §1, §2, §3
# PC-3 = experiment: Cell viability, trypan blue exclusion; assay type: cell-based, human
# Procedure: as §1, §2, §3
# RAJI = experiment: Cell viability, trypan blue exclusion; assay type: cell-based, human
# Procedure: as §1, §2, §3
# U-937 = experiment: Cell viability, trypan blue exclusion; assay type: cell-based, human
# Procedure: as §1, §2, §3
# [1] = test system: DNMT3A protein level in PC-3 cells; experiment: Western blot of DNMT3A protein in PC-3; assay type: cell-based, human; conditions: 24 h; 1 μM requested for the effect
# Excerpt: (§4) Cells were lysed in Laemmli buffer; subsequently, the proteins were resolved by sodium dodecyl sulfate-polyacrylamide gel electrophoresis and transferred to a 0.45-μm nitrocellulose membrane (Bio-Rad Laboratories, Hercules, CA). The following primary antibodies were used for immunoblotting: α-E-cadherin (BD Transduction Laboratories, Franklin Lakes, NJ), α-MMP2 (Abcam), α-DNMT3a (Santa Cruz Biotechnologies, Dallas, TX), and α-GAPDH (Millipore Corp., Bedford, MA), used as a loading control. The immune complexes were detected with horseradish peroxidase-conjugated species-specific secondary antiserum (Bio-Rad Laboratories, Milan, Italy) then by enhanced chemiluminescence reaction (Bio-Rad Laboratories, Milan, Italy). Densitometric analysis of protein expression was performed by using the Fiji ImageJ image processing package.
# GAPDH was used as a loading control. Blots are representative of two independent experiments
# [2] = test system: MMP2 protein in PC-3 cells; experiment: Western blot of MMP2 in PC-3; assay type: cell-based, human; conditions: 1 μM, 24 h
# Excerpt: as §4
# Fig. 8 Effects of MC3353 on E-cadherin and MMP2 protein expression levels in PC-3 cancer cells. Cells were treated with vehicle (DMSO) used as control (CTR) or MC3353 for 24 h. a E-cadherin and MMP2 protein detection by western blot. GAPDH was used as a loading control. Blots are representative of three independent experiments. b Densitometric analysis of E-cadherin and MMP2 protein expression. Significance is represented as *p < 0.05 related to the control groups. Data were obtained from three independent experiments and expressed as mean ± SEM
# Src kinase (h) = target: T1, Src kinase (h) (Homo sapiens, UniProt P12931); experiment: Kinase panel (Cerep); assay type: biochemical; conditions: read-out: % inhibition at 10 µM by MC3353, Src kinase (h), ATP 5 μM
# T1 construct: purchased Eurofins Cerep
# Procedure: (§5) The test compound, reference compound or water (control) were mixed with the enzyme (for the exact amount see table below) in the appropriate buffer. Thereafter, the reaction was initiated by adding the required amount of the appropriate substrate and of ATP, and the mixture is incubated at room temperature (variable reaction time, see table below). For control basal measurements, the enzyme was omitted from the reaction mixture. Following incubation, the reaction was stopped by adding 13 mM EDTA. After 5 min, the proper antibody labelled with europium chelate was added. After 60 more min, the fluorescence transfer was measured at λex=337 nm, λem=620 nm and λem=665 nm using a microplate reader (Envision, Perkin Elmer). The enzyme activity was determined by dividing the signal measured at 665 nm by that measured at 620 nm (ratio). The results are expressed as a percent inhibition of the control enzyme activity.
# TRKA (h) = target: T2, TRKA (h) (Homo sapiens, UniProt P04629); experiment: Kinase panel (Cerep); assay type: biochemical; conditions: read-out: % inhibition at 10 µM by MC3353, TRKA (h), ATP 100 μM
# T2 construct: purchased Eurofins Cerep
# Procedure: as §5
# T1 sequence (P12931 whole entry): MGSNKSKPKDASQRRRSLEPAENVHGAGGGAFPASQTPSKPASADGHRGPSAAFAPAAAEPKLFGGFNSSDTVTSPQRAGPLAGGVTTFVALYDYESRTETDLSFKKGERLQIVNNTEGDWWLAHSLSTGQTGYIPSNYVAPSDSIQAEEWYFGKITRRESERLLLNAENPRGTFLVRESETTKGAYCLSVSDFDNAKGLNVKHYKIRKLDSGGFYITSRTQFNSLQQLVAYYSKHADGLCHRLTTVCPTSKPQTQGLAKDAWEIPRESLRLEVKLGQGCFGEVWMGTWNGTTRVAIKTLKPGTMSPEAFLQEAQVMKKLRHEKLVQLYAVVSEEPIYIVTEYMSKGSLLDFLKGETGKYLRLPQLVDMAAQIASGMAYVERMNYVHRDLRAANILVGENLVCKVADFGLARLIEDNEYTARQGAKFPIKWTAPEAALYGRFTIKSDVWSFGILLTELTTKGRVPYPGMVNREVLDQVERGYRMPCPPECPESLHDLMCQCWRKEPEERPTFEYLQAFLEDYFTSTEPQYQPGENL
# T2 sequence (P04629 33-796): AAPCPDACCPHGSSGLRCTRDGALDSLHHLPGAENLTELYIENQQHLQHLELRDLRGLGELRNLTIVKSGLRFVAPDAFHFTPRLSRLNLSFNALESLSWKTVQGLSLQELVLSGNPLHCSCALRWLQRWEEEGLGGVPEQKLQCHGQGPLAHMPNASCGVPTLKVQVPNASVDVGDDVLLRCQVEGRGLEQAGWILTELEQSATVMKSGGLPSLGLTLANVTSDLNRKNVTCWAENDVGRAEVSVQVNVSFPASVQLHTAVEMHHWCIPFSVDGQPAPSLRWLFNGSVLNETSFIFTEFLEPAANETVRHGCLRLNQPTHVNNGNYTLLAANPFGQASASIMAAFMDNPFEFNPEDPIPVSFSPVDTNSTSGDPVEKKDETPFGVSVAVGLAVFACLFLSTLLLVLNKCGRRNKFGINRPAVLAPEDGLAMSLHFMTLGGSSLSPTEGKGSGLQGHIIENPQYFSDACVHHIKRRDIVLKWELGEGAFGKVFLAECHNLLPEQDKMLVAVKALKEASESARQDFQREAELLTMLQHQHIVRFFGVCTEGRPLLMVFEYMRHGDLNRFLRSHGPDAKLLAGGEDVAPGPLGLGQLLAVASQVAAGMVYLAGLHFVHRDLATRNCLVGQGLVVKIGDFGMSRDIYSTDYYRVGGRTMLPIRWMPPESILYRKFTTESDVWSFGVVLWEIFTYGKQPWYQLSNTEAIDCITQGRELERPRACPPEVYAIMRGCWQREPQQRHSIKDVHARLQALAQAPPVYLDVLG
smiles,measurement,setting,value
"O=C(Nc1ccc(NC(=O)c2ccc(Nc3ccnc4ccccc34)cc2)cc1)OCc1ccccc1 [MC3353, Benzyl (4-(4-(quinolin-4-ylamino)benzamido)phenyl)carbamate]",inhibition at 0.1 µM,KG-1 cells; 5h,5.5%
same,inhibition at 0.1 µM,KG-1 cells; 24h,2.9%
same,inhibition at 1 µM,KG-1 cells; 5h,17.7%
same,inhibition at 1 µM,KG-1 cells; 24h,98.7%
same,inhibition at 5 µM,KG-1 cells; 5h,81.2%
same,inhibition at 5 µM,KG-1 cells; 24h,100%
same,inhibition at 10 µM,KG-1 cells; 5h,96.8%
same,inhibition at 10 µM,KG-1 cells; 24h,100%
same,"Selectivity index (IC50 PBMCs/IC50 cell line), KG-1",KG-1; 48 h,(26.2)
same,"Selectivity index (IC50 PHA_PBMCs/IC50 cell line), KG-1",KG-1; 48 h,(13.5)
same,"Selectivity index (IC50 RPMI1788/IC50 cell line), KG-1",KG-1; 48 h,(7.2)
same,IC50,"KG-1; Homo sapiens, KG-1, 48 h of treatment, read-out: IC50 ± SD, cell viability, KG-1",0.3 µM
same,"Selectivity index (IC50 PBMCs/IC50 cell line), MDA-MB-231",MDA-MB-231; 48 h,(9.7)
same,"Selectivity index (IC50 PHA_PBMCs/IC50 cell line), MDA-MB-231",MDA-MB-231; 48 h,(5.0)
same,"Selectivity index (IC50 RPMI1788/IC50 cell line), MDA-MB-231",MDA-MB-231; 48 h,(2.6)
same,IC50,"MDA-MB-231; Homo sapiens, MDA-MB-231, 48 h of treatment, read-out: IC50 ± SD, cell viability, MDA-MB-231",0.9 ± 0.7 µM
same,"Selectivity index (IC50 PBMCs/IC50 cell line), PC-3",PC-3; 48 h,(9.8)
same,"Selectivity index (IC50 PHA_PBMCs/IC50 cell line), PC-3",PC-3; 48 h,(5.1)
same,"Selectivity index (IC50 RPMI1788/IC50 cell line), PC-3",PC-3; 48 h,(2.7)
same,IC50,"PC-3; Homo sapiens, PC-3, 48 h of treatment, read-out: IC50 ± SD, cell viability, PC-3",0.9 ± 0.4 µM
same,"Selectivity index (IC50 PBMCs/IC50 cell line), RAJI",RAJI; 48 h,(23.1)
same,"Selectivity index (IC50 PHA_PBMCs/IC50 cell line), RAJI",RAJI; 48 h,(11.9)
same,"Selectivity index (IC50 RPMI1788/IC50 cell line), RAJI",RAJI; 48 h,(6.3)
same,IC50,"RAJI; Homo sapiens, Raji, 48 h of treatment, read-out: IC50 ± SD, cell viability, RAJI",0.4 µM
same,"Selectivity index (IC50 PBMCs/IC50 cell line), U-937",U-937; 48 h,(24.0)
same,"Selectivity index (IC50 PHA_PBMCs/IC50 cell line), U-937",U-937; 48 h,(12.4)
same,"Selectivity index (IC50 RPMI1788/IC50 cell line), U-937",U-937; 48 h,(6.6)
same,IC50,"U-937; Homo sapiens, U-937, 48 h of treatment, read-out: IC50 ± SD, cell viability, U-937",0.4 µM
same,"DNMT3A protein expression level (western blot), PC-3",[1],DNMT3A protein downregulation was observed
same,"MMP2 protein level (western blot, densitometry), PC-3",[2],reduced MMP2 protein levels
same,inhibition at 10 µM,Src kinase (h),57%
same,inhibition at 10 µM,TRKA (h),67%
